In paper PMC6277767, “Broad and Region-Specific Impacts of the Synthetic Cannabinoid CP 55,940 in Adolescent and Adult Female Mouse Brains” (Frontiers in Molecular Neuroscience, 2018):

System: CD1 female mouse brain lipidome
Test: Brain-region lipid levels (HPLC/MS/MS lipidomics) 2 h after single i.p. 3 mg/kg CP 55,940 vs vehicle
Type: in vivo
Set-up: N-arachidonoyl phenylalanine level, Mean / N-stearoyl tryptophan level, Mean / N-stearoyl proline level, Mean / N-stearoyl leucine level, Mean / N-stearoyl phenylalanine level, Mean / N-stearoyl serine level, Mean / N-stearoyl methionine level, Mean: unit: moles per gram
Method: The Bloomington Institutional Animal Care and Use Committee of Indiana University reviewed and approved the animal procedures. Female mice from the CD1 strain were utilized to match our study examining THC’s effects on the brain lipidome ([Leishman et al., 2018]). Mice were given a single i.p. injection of either 3 mg/kg CP or 1:1:18 cremophor:ethanol:saline vehicle (please refer to the section “3 mg/kg CP Is Relevant for Synthetic Cannabinoid Abuse and Has Stronger Effects on the Female Mouse Brain Lipidome During Adolescence” for a justification of dose and use of female mice). Three different age groups were given injections: PND 35 and PND 50 adolescents, and adult mice (PND 113). At least eight mice in each age group received CP and at least eight received vehicle. Matching the THC study time course ([Leishman et al., 2018]), mice were sacrificed via rapid decapitation 2 h after injection. Brains were immediately removed and flash-frozen in liquid nitrogen, and then stored at -80°C until dissections were performed. Brains were dissected on an ice-cold dissection plate into the following regions: STR, HIPP, CER, THAL, CTX, HYP, MID, and STEM. These abbreviations for these brain areas will be used exclusively when discussing the results generated by these specific dissections. Each dissected area was immediately placed in liquid nitrogen and then stored at -80°C until used for lipid extraction.
Tissue extracts were performed as previously described ([Bradshaw et al., 2006]; [Stuart et al., 2013]; [Raboune et al., 2014]; [Leishman et al., 2016a],[b], [2017], [2018]). First, samples were shock frozen in liquid nitrogen, weighed, and transferred to a centrifuge tube. The mass of the largest sample was multiplied by 50 to determine how many milliliters of HPLC-grade methanol (Fisher, Fair Lawn, NJ, United States) to add. Then, samples were spiked with 500 pmol deuterium-labeled NAGly (d8NAGly; Cayman Chemical, Ann Arbor, MI, United States). Samples were placed on ice in darkness for 2 h then individually homogenized and centrifuged at 19,000 × g for 20 min at 20°C. Supernatants were diluted with HPLC water (purified in house) to make a solution of 75% water, 25% supernatant. Lipids were partially purified on C18 solid phase extraction columns (Agilent, Palo Alto, CA, United States). A series of four elutions with 1.5 mL of 60%, 75%, 85%, and 100% methanol were collected ([Stuart et al., 2013]; [Leishman et al., 2016a],[b], [2018]).
As previously described ([Bradshaw et al., 2006]; [Tan et al., 2006]; [Smoum et al., 2010]; [Stuart et al., 2013]; [Tortoriello et al., 2013]; [Raboune et al., 2014]; [Leishman et al., 2016a],[b], [2017], [2018]), samples were analyzed using an Applied Biosystems API 3000 triple quadrupole mass spectrometer with electrospray ionization (Foster City, CA, United States). Using an Agilent XDB-C18 reversed phase analytical column and optimized mobile phase gradients, 20 μL from each elution were chromatographed. Two Shimadzu 10ADvp pumps (Columbia, MD, United States) provided the pressure for gradient elution. Mobile phase A: 20% methanol, 80% water (v/v) and 1 mM ammonium acetate (Sigma, St. Louis, MO, United States). Mobile phase B: 100% methanol, 1 mM ammonium acetate. Every method run began with 0% mobile phase B, reached 100% mobile phase B flowing at 0.2 mL/min, and gradually returned to 0% mobile phase B.
This screening library will be referred to as the lipidome when discussing data from this study. HPLC/MS/MS data were analyzed using Analyst software (Applied Biosystems) ([Bradshaw et al., 2006]; [Tan et al., 2006]; [Stuart et al., 2013]; [Tortoriello et al., 2013]; [Raboune et al., 2014]; [Leishman et al., 2016a],[b], [2017], [2018]). Chromatograms (Supplementary Figure 3) were generated by determining the retention time of analytes from the analytical column with a [M-1] or [M+1] parent peak and a fragmentation peak corresponding to the programmed values. […]

[1] = adult female mice, brainstem, 3mg/kg CP 55,940
[2] = adult hypothalamus, 3 mg/kg CP 55,940

CCCCCCC(C)(C)c1ccc([C@@H]2C[C@H](O)CC[C@H]2CCCO)c(O)c1 [CP 55,940]
6-ketoPGF1α level, Mean [1]: 2.07E-11
Arachidonic acid level, Mean [1]: 4.08E-10
Linoleic acid level, Mean [1]: 4.56E-10
N- stearoyl valine level, Mean [1]: 2.21E-14
N-arachidonoyl proline level, Mean [1]: BDL
N-arachidonoyl serine level, Mean [1]: PISSR
N-arachidonoyl taurine level, Mean [1]: 2.62E-11
N-arachidonoyl tryptophan level, Mean [1]: BDL
N-arachidonoyl tyrosine level, Mean [1]: 6.33E-13
N-docosahexaenoyl proline level, Mean [1]: BDL
N-docosahexaenoyl serine level, Mean [1]: PISSR
N-docosahexaenoyl tryptophan level, Mean [1]: BDL
N-docosahexaenoyl tyrosine level, Mean [1]: 5.03E-13
N-docosahexaenoyl valine level, Mean [1]: BDL
N-linoleoyl proline level, Mean [1]: BDL
N-linoleoyl serine level, Mean [1]: 1.98E-11
N-linoleoyl tryptophan level, Mean [1]: BDL
N-linoleoyl tyrosine level, Mean [1]: PISSR
N-linoleoyl valine level, Mean [1]: PISSR
N-nervonoyl valine level, Mean [1]: BDL
N-oleoyl proline level, Mean [1]: BDL
N-oleoyl serine level, Mean [1]: 1.03E-10
N-oleoyl tryptophan level, Mean [1]: BDL
N-oleoyl tyrosine level, Mean [1]: 5.06E-13
N-oleoyl valine level, Mean [1]: 1.48E-14
N-palmitoyl proline level, Mean [1]: BDL
N-palmitoyl serine level, Mean [1]: 1.08E-11
N-palmitoyl tryptophan level, Mean [1]: BDL
N-palmitoyl tyrosine level, Mean [1]: 7.4E-13
N-palmitoyl valine level, Mean [1]: 1.28E-13
N-stearoyl proline level, Mean [1]: BDL
N-stearoyl serine level, Mean [1]: 1.31E-11
N-stearoyl tryptophan level, Mean [1]: BDL
Oleic acid level, Mean [1]: 4.28E-10
PGE2 level, Mean [1]: 1.64E-10
PhosphoLEA level, Mean [1]: 2.15E-12
2-arachidonoyl glycerol level, Mean [2]: 2.11E-09
2-linoleoyl glycerol level, Mean [2]: 1.7E-10
2-oleoyl glycerol level, Mean [2]: 1.71E-09
2-palmitoyl glycerol level, Mean [2]: 1.78E-10
6-ketoPGF1α level, Mean [2]: 2.15E-11
11-OH-THC level, Mean [2]: BDL
11-nor-9-carboxyTHC level, Mean [2]: BDL
Arachidonic acid level, Mean [2]: 6.14E-10
Cannabidiol level, Mean [2]: BDL
Linoleic acid level, Mean [2]: 1.2E-10
N-arachidonoyl GABA level, Mean [2]: 2.05E-11
N-arachidonoyl dopamine level, Mean [2]: BDL
N-arachidonoyl ethanolamine level, Mean [2]: 6.61E-12
N-arachidonoyl glycine level, Mean [2]: 2.96E-13
N-arachidonoyl methionine level, Mean [2]: BDL
N-arachidonoyl phenylalanine level, Mean [2]: 1.34E-13
N-arachidonoyl proline level, Mean [2]: BDL
N-arachidonoyl serine level, Mean [2]: BDL
N-arachidonoyl taurine level, Mean [2]: 1.91E-11
N-arachidonoyl tryptophan level, Mean [2]: BDL
N-docosahexaenoyl ethanolamine level, Mean [2]: 1.18E-11
N-docosahexaenoyl methionine level, Mean [2]: BDL
N-docosahexaenoyl proline level, Mean [2]: BDL
N-docosahexaenoyl tryptophan level, Mean [2]: BDL
N-docosahexaenoyl valine level, Mean [2]: BDL
N-linoleoyl GABA level, Mean [2]: BDL
N-linoleoyl ethanolamine level, Mean [2]: 6.58E-12
N-linoleoyl methionine level, Mean [2]: BDL
N-linoleoyl proline level, Mean [2]: BDL
N-linoleoyl serine level, Mean [2]: 1.16E-10
N-linoleoyl tryptophan level, Mean [2]: BDL
N-linoleoyl tyrosine level, Mean [2]: BDL
N-linoleoyl valine level, Mean [2]: BDL
N-nervonoyl valine level, Mean [2]: BDL
N-oleoyl alanine level, Mean [2]: 4.79E-12
N-oleoyl dopamine level, Mean [2]: BDL
N-oleoyl ethanolamine level, Mean [2]: 7.29E-11
N-oleoyl glycine level, Mean [2]: 2.66E-13
N-oleoyl methionine level, Mean [2]: BDL
N-oleoyl phenylalanine level, Mean [2]: 5E-13
N-oleoyl proline level, Mean [2]: BDL
N-oleoyl serine level, Mean [2]: 5.82E-10
N-oleoyl tryptophan level, Mean [2]: BDL
N-palmitoyl GABA level, Mean [2]: 3.12E-11
N-palmitoyl alanine level, Mean [2]: 2.7E-12
N-palmitoyl ethanolamine level, Mean [2]: 2.56E-11
N-palmitoyl glycine level, Mean [2]: 2.34E-12
N-palmitoyl leucine level, Mean [2]: 1.88E-12
N-palmitoyl methionine level, Mean [2]: BDL
N-palmitoyl phenylalanine level, Mean [2]: 3.42E-13
N-palmitoyl proline level, Mean [2]: BDL
N-palmitoyl tryptophan level, Mean [2]: BDL
N-palmitoyl tyrosine level, Mean [2]: 1.11E-12
N-palmitoyl valine level, Mean [2]: 1.56E-13
N-stearoyl alanine level, Mean [2]: 2.77E-12
N-stearoyl ethanolamine level, Mean [2]: 7.07E-12
N-stearoyl glycine level, Mean [2]: 2.2E-12
N-stearoyl leucine level, Mean [2]: 1.65E-12
N-stearoyl methionine level, Mean [2]: BDL
N-stearoyl phenylalanine level, Mean [2]: 2.86E-13
N-stearoyl proline level, Mean [2]: BDL
N-stearoyl serine level, Mean [2]: 4.88E-11
N-stearoyl tryptophan level, Mean [2]: BDL
Oleic acid level, Mean [2]: 2.14E-10
PGE2 level, Mean [2]: 2.25E-10
PhosphoLEA level, Mean [2]: 5.73E-11
